Source: patent US20250154171A1, “RAS INHIBITORS” (Revolution Medicines, Inc., priority 2023, published 2025)
Where two headings read alike, the source gives them in different places.

Tests used:
[1] = test system: K-RasG12V (Capan-1); experiment: Potency assay: cellular pERK (AlphaLISA SureFire or In-Cell Western), Capan-1; assay type: cell-based; conditions: Homo sapiens; Capan-1 cells; 4 hours; in at least one of the assays (AlphaLISA or In-Cell Western); read-out: pERK IC50 with respect to K-RasG12V (Capan-1)
Excerpt: The purpose of this assay is to measure the ability of test compounds to inhibit K-Ras in cells. Activated K-Ras induces increased phosphorylation of ERK at Threonine 202 and Tyrosine 204 (PERK). This procedure measures a decrease in cellular pERK in response to test compounds. The procedure described below in Capan-1 cells is applicable to K-RasG12V.
Note: This protocol may be executed substituting other cell lines to characterize inhibitors of other RAS variants, including, for example, NCI-H358 (K-Ras G12C), AsPC-1 (K-Ras G12D), Capan-1 (K-Ras G12V), or NCI-H1355 (K-Ras G13C).
Cells are grown and maintained using media and procedures recommended by the ATCC. On the day prior to compound addition, cells are plated in 384-well cell culture plates (40 μl/well) and grown overnight in a 37° C., 5% CO2 incubator. Test compounds are prepared in 10, 3-fold dilutions in DMSO, with a high concentration of 10 mM. On the day of assay, 40 nL of test compound is added to each well of cell culture plate using an Echo550 liquid handler (LabCyte®). Concentrations of test compound are tested in duplicate. After compound addition, cells are incubated 4 hours at 37° C., 5% CO2. Following incubation, culture medium is removed, and cells are washed once with phosphate buffered saline.
In some experiments, cellular pERK level is determined using the AlphaLISA SureFire Ultra p-ERK1/2 Assay Kit (PerkinElmer). Cells are lysed in 25 μL lysis buffer, with shaking at 600 RPM at room temperature. Lysate (10 μL) is transferred to a 384-well Opti-plate (PerkinElmer) and 5 μL acceptor mix is added. After a 2-hour incubation in the dark, 5 μL donor mix is added, plate is sealed, and incubated 2 hours at room temperature. Signal is read on an Envision plate reader (PerkinElmer) using standard AlphaLISA settings. Analysis of raw data is carried out in Excel (Microsoft) and Prism (GraphPad). Signal is plotted vs. the decadal logarithm of compound concentration, and IC50 is determined by fitting a 4-parameter sigmoidal concentration response model.
In other experiments, cellular pERK is determined by In-Cell Western. Following compound treatment, cells are washed twice with 200 μL tris buffered saline (TBS) and fixed for 15 minutes with 150 μL 4% paraformaldehyde in TBS. Fixed cells are washed 4 times for 5 minutes with TBS containing 0.1% Triton X-100 (TBST) and then blocked with 100 μL Odyssey blocking buffer (LI-COR) for 60 minutes at room temperature. Primary antibody (PERK, CST-4370, Cell Signaling Technology) is diluted 1:200 in blocking buffer, and 50 μL is added to each well and incubated overnight at 4° C. Cells are washed 4 times for 5 minutes with TBST. Secondary antibody (IR-800CW rabbit, LI-COR, diluted 1:800) and DNA stain DRAQ5 (LI-COR, diluted 1:2000) are added and incubated 1-2 hours at room temperature. Cells are washed 4 times for 5 minutes with TBST. Plates are scanned on a Li—COR Odyssey CLx Imager. Analysis of raw data is carried out in Excel (Microsoft) and Prism (GraphPad). Signal is plotted vs. the decadal logarithm of compound concentration, and IC50 is determined by fitting a 4-parameter sigmoidal concentration response model.

Compound: CO[C@@H](C)c1ncccc1-c1c2c3cc(ccc3n1C1CN(C3CC3)C1)-c1coc(n1)[C@@H](N1CCN(C)CC1)[C@H](NC(=O)[C@@H]1[C@@H](C)[C@H]1c1ccncn1)C(=O)N1CCC[C@H](N1)C(=O)OCC(C)(C)C2 (atropisomer, axis not shown) [Example A1104]
- IC50 [1]: < 650 nM

Compound: CO[C@@H](C)c1ncccc1-c1c2c3cc(ccc3n1[C@H]1C[C@@H](C#N)C1)-c1csc(n1)[C@@H](N1CC3(CCCN3)C1)[C@H](NC(=O)[C@H]1[C@H](C)[C@@H]1C)C(=O)N1CCC[C@H](N1)C(=O)OCC(C)(C)C2 (atropisomer, axis not shown) [Example A1168]
- IC50 [1]: < 650 nM

Compound: CO[C@@H](C)c1ncc(N2CCN(C3CC3)CC2)cc1-c1c2c3cc(ccc3n1CCOC1CCOCC1)-c1csc(n1)[C@@H](N1CC3(COC3)C1)[C@H](NC(=O)OC(C)(C)C)C(=O)N1CCC[C@H](N1)C(=O)OCC(C)(C)C2
- ring closure, isolated yield (from CO[C@@H](C)c1ncc(N2CCN(C3CC3)CC2)cc1-c1c(CC(C)(C)CO)c2cc(-c3csc([C@H]([C@H](NC(=O)OC(C)(C)C)C(=O)N4CCC[C@@H](C(=O)O)N4)N4CC5(COC5)C4)n3)ccc2n1CCOC1CCOCC1, ester bond, 18-membered ring, EDCI/HOBt/DIEA, CH2Cl2, 9.35 mM, 25.0 °C): 27.3%

Compound: CO[C@@H](C)c1ncccc1-c1c2c3cc(ccc3n1[C@H]1C[C@@H](C#N)C1)-c1coc(n1)[C@@H](OCc1ccccn1)[C@H](NC(=O)[C@H]1[C@H](C)[C@@H]1C)C(=O)N1N[C@H](C(=O)OCC(C)(C)C2)C2CC1C2 [Example A1174]
- IC50 [1]: < 650 nM

Compound: CO[C@@H](C)c1ncccc1-c1c2c3cc(ccc3n1[C@H]1C[C@@H](C#N)C1)-c1csc(n1)[C@@H](N1CC3(CCCN3C)C1)[C@H](NC(=O)[C@H]1[C@H](C)[C@@H]1C)C(=O)N1CCC[C@H](N1)C(=O)OCC(C)(C)C2 (atropisomer, axis not shown) [Example A983]
- IC50 [1]: < 650 nM

Compound: CO[C@@H](C)c1ncccc1-c1c2c3cc(ccc3n1C1CN(C3CC3)C1)-c1coc(n1)[C@@H](N1CC3(CCCN3C)C1)[C@H](NC(=O)[C@@H]1[C@@H](C)[C@H]1c1ccncn1)C(=O)N1CCC[C@H](N1)C(=O)OCC(C)(C)C2 (atropisomer, axis not shown) [Example A1086]
- IC50 [1]: < 650 nM

Compound: CO[C@@H](C)c1ncccc1-c1c2c3cc(ccc3n1CCOC1CCOCC1)-c1csc(n1)[C@@H](N1CCOC[C@@H]1C#N)[C@H](NC(=O)OC(C)(C)C)C(=O)N1CCC[C@H](N1)C(=O)OC(C)(C)C2
- ring closure, isolated yield (from CO[C@@H](C)c1ncccc1-c1c(CC(C)(C)O)c2cc(-c3csc([C@H]([C@H](NC(=O)OC(C)(C)C)C(=O)N4CCC[C@@H](C(=O)O)N4)N4CCOC[C@@H]4C#N)n3)ccc2n1CCOC1CCOCC1, ester bond, 18-membered ring, EDCI/HOBt/DIEA, CH2Cl2, 10.4 mM, 25.0 °C, 2.0 h): 31%

Compound: CO[C@@H](C)c1ncccc1-c1c2c3cc(ccc3n1C1CN(C3CC3)C1)-c1csc(n1)[C@@H](N1CC3(CCN3C3COC3)C1)[C@H](NC(=O)[C@@H]1[C@@H](C)[C@H]1c1ccncn1)C(=O)N1CCC[C@H](N1)C(=O)OCC(C)(C)C2 (atropisomer, axis not shown) [Example A1076]
- IC50 [1]: < 650 nM

Compound: C[C@@H]1OC[C@H](C)OCCn2c(c(CC(C)(C)CO[Si](c3ccccc3)(c3ccccc3)C(C)(C)C)c3cc(Br)ccc32)-c2cccnc21
- ring closure, isolated yield (from C[C@H](OC[C@H](C)OCCBr)c1ncccc1-c1[nH]c2ccc(Br)cc2c1CC(C)(C)CO[Si](c1ccccc1)(c1ccccc1)C(C)(C)C, amine bond, 11-membered ring, Cs2CO3, DMF, 119.0 mM, 60.0 °C, 1.0 h): 76.9%

Compound: CO[C@@H](C)c1ncc(N2CCN(C3CC3)CC2)cc1-c1c2c3cc(ccc3n1CCOC1CCOCC1)-c1csc(n1)[C@@H](N1CC3(COC3)C1)[C@H](NC(=O)[C@@H]1[C@@H](C)[C@H]1C(=O)N1CCN(C)CC1)C(=O)N1CCC[C@H](N1)C(=O)OCC(C)(C)C2 (atropisomer, axis not shown) [Example A1083]
- IC50 [1]: < 650 nM

Compound: tert-butyl ((6^3S,3R,4S)-1^2-(5-(4-cyclopropylpiperazin-1-yl)-2-((S)-1-methoxyethyl)pyridin-3-yl)-3-ethoxy-10,10-dimethyl-5,7-dioxo-1^1-(2-((tetrahydro-2H-pyran-4-yl)oxy)ethyl)-6^1,6^2,6^3,6^4,6^5,6^6-hexahydro-1^1H-8-oxa-2 (5,2)-oxazola-1(5,3)-indola-6(1,3)-pyridazinacycloundecaphane-4-yl) carbamate
- ring closure, isolated yield (cc_pd bond, 18-membered ring, XPhos Pd G3/XPhos/K3PO4, toluene/dioxane/H2O, 53.0 mM, 80.0 °C): 16.3%

Compound: tert-butyl ((6^4S,3S,4S,Z)-12-(5-(4-cyclopropylpiperazin-1-yl)-2-((S)-1-methoxyethyl)pyridin-3-yl)-10,10-dimethyl-3-morpholino-5,7-dioxo-11-(2-((tetrahydro-2H-pyran-4-yl)oxy)ethyl)-11H-8-oxa-6^2,6^3-diaza-2(4,2)-thiazola-1(5,3)-indola-6 (2,4)-bicyclo[3.1.1]heptanacycloundecaphane-4-yl) carbamate
- ring closure, isolated yield (ester bond, 18-membered ring, EDCI/HOBt/DIEA, CH2Cl2, 4.68 mM, 30.0 °C): 41%

Compound: CO[C@@H](C)c1ncc([C@@H]2CCN(C3CC3)C2)cc1-c1c2c3cc(ccc3n1CCOC1CCOCC1)-c1csc(n1)[C@@H](N1CC(C)(OC)C1)[C@H](NC(=O)OC(C)(C)C)C(=O)N1CCC[C@H](N1)C(=O)OCC(C)(C)C2
- ring closure, isolated yield (from CO[C@@H](C)c1ncc([C@@H]2CCN(C3CC3)C2)cc1-c1c(CC(C)(C)CO)c2cc(-c3csc([C@H]([C@H](NC(=O)OC(C)(C)C)C(=O)N4CCC[C@@H](C(=O)O)N4)N4CC(C)(OC)C4)n3)ccc2n1CCOC1CCOCC1, ester bond, 18-membered ring, EDCI/HOBt/DIEA, CH2Cl2, 9.4 mM, 25.0 °C, 16.0 h): 43.6%

Compound: CO[C@@H](C)c1ncc(N2CCN(C(=O)OCc3ccccc3)CC2)cc1-c1c2c3cc(ccc3n1CCO[C@H]1CCOC(C)(C)C1)-c1nc(co1)[C@@H](N1CCCC1)[C@H](NC(=O)OC(C)(C)C)C(=O)N1N[C@H](C(=O)OCC(C)(C)C2)C2CC1C2
- ring closure, isolated yield (from CO[C@@H](C)c1ncc(N2CCN(C(=O)OCc3ccccc3)CC2)cc1-c1c(CC(C)(C)COC(=O)[C@H]2NN(C(=O)[C@@H](NC(=O)OC(C)(C)C)[C@@H](c3coc(Br)n3)N3CCCC3)C3CC2C3)c2cc(B3OC(C)(C)C(C)(C)O3)ccc2n1CCO[C@H]1CCOC(C)(C)C1, cc_pd bond, 18-membered ring, Pd(DtBPF)Cl2/K3PO4, toluene/dioxane/H2O, 15.9 mM, 80.0 °C, 2.0 h): 24%

Compound: CO[C@@H](C)c1ncc(N2CCN(C3CC3)CC2)cc1-c1c2c3cc(ccc3n1CCO[C@H]1CCOC(C)(C)C1)-c1coc(n1)[C@@H](N1CC3(COC3)C1)[C@H](NC(=O)OC(C)(C)C)C(=O)N1CC3CC(C3)(N1)C(=O)OCC(C)(C)C2
- ring closure, isolated yield (from CO[C@@H](C)c1ncc(N2CCN(C3CC3)CC2)cc1-c1c(CC(C)(C)CO)c2cc(-c3coc([C@H]([C@H](NC(=O)OC(C)(C)C)C(=O)N4CC5CC(C(=O)O)(C5)N4)N4CC5(COC5)C4)n3)ccc2n1CCO[C@H]1CCOC(C)(C)C1, ester bond, 18-membered ring, PyBOP/DMAP/DIEA, CH2Cl2, 1.83 mM, 20.0 °C, 15.0 h): 62.5%

Compound: CO[C@@H](C)c1ncc(N2CCN(C3CC3)CC2)cc1-c1c2c3cc(ccc3n1CCOC1CCOCC1)-c1csc(n1)[C@@H](N1CCCC1)[C@H](NC(=O)OC(C)(C)C)C(=O)N1CCC[C@H](N1)C(=O)OCC(C)(C)C2
- ring closure, isolated yield (from CO[C@@H](C)c1ncc(N2CCN(C3CC3)CC2)cc1-c1c(CC(C)(C)CO)c2cc(-c3csc([C@H]([C@H](NC(=O)OC(C)(C)C)C(=O)N4CCC[C@@H](C(=O)O)N4)N4CCCC4)n3)ccc2n1CCOC1CCOCC1, ester bond, 18-membered ring, EDCI/HOBt/DIEA, CH2Cl2, 9.59 mM, 25.0 °C): 54.7%

Compound: CO[C@@H](C)c1ncccc1-c1c2c3cc(ccc3n1CCO[C@H]1CCOC(C)(C)C1)-c1coc(n1)C[C@H](NC(=O)OC(C)(C)C)C(=O)N1N[C@H](C(=O)OCC(C)(C)C2)C2CC1C2
- ring closure, isolated yield (from CO[C@@H](C)c1ncccc1-c1c(CC(C)(C)CO)c2cc(-c3coc(C[C@H](NC(=O)OC(C)(C)C)C(=O)N4N[C@H](C(=O)O)C5CC4C5)n3)ccc2n1CCO[C@H]1CCOC(C)(C)C1, ester bond, 18-membered ring, EDCI/HOBt/DIEA, MeCN, 11.5 mM, 35.0 °C, 2.0 h): 30.6%
